Measured values from patent publication US7169815B2, “3-methoxybenzyl thiourea derivatives and improved lipid compositions containing same” (The United States of America as represented by the …, priority 2000, dated 2007).
Values after ≈ are worked out from the molar mass of the structure shown. Where two headings read alike, the source gives them in different places.

What was measured:
[1] = tested on: Brine Shrimp (Artemia Salina); assay: in vivo; conditions: as Table 7 shows
Protocol: (§1) Brine shrimp eggs (Artemia salina) were obtained from Brine Shrimp Direct, Ogden, Utah and stored at 10° C. until used. Eggs (400 mg) were added to 1 l of deionized water containing 40 g of sea salts (Sigma Chemical Co., St. Louis, Mo.).
(§2) Serial dilutions were performed in 100 μl of seawater in triplicate in the wells of a 96-well microplate to give appropriate concentrations. Control wells for both water and DMSO were included with each experiment. […] The number of non-motile, and the total number of, naupli were counted in each well using a binocular microscope (10×).

in vivo = conditions: Artemia salina (brine shrimp), in vivo, other: exposure in seawater in microplate wells
Protocol: as §1, §2

[2] = OSI test of soybean oil mixed with additive; conditions: 1.0% additive, 130° C.
Excerpt: (§3) A presently preferred method of determining oxidative stability of lipids and oils employs the Oxidative Stability Index (OSI), which determines the oxidative stability of an oil by passing air through a sample under stringent temperature control. (Firestone, Oxidative Stability Index (OSI): Official Methods of Recommended Practices of the American Oil Chemists' Society (AOCS), 4th Ed. American Oil Chemists Society, Champaign, Ill., AOCS Official Method Cd 12b-92, 1993.) In this method, a stream of air is passed through the oil sample, which aids in the rapid degradation of the triglyceride into volatile organic acids. The air stream flushes the volatile acids from the oil into a conductivity cell containing water where the acids are solubilized. These acids, once dissolved in the water solution, disassociate into ions, thus changing the conductivity of the water. Therefore, a continuous measure of the conductivity of the cell by computer will indicate when a rapid rise in the conductivity occurs that corresponds to the induction point, oxidative failure of the sample. […]
(§4) Unless otherwise stated, Oxidative Stability Index (OSI) values were determined on 5.00 ±0.05 g lipid or oil samples in triplicate according to AOCS Official Method Cd 12b-92 (AOCS, 1993) at 90° C., 110° C. and/or 130° C. on an oxidative stability instrument manufactured by Omnion (Rockland, Mass.). […]

[3] = Oxidative Stability Index (OSI) of refined meadowfoam seed oil plus additives; conditions: 130° C.; for increase in the OSI time: refined meadowfoam seed oil, versus oil with no additives
Excerpt: (§5) A presently preferred method of determining oxidative stability of lipids and oils employs the Oxidative Stability Index (OSI), which determines the oxidative stability of an oil by passing air through a sample under stringent temperature control. (Firestone, Oxidative Stability Index (OSI): Official Methods of Recommended Practices of the American Oil Chemists' Society (AOCS), 4th Ed. American Oil Chemists Society, Champaign, Ill., AOCS Official Method Cd 12b-92, 1993.) In this method, a stream of air is passed through the oil sample, which aids in the rapid degradation of the triglyceride into volatile organic acids. The air stream flushes the volatile acids from the oil into a conductivity cell containing water where the acids are solubilized. These acids, once dissolved in the water solution, disassociate into ions, thus changing the conductivity of the water. Therefore, a continuous measure of the conductivity of the cell by computer will indicate when a rapid rise in the conductivity occurs that corresponds to the induction point, oxidative failure of the sample. The time to the induction point is the OSI time. […] Saturated fatty acid methyl ester (FAME) standards commercially available from Alltech Associates (Deerfield, Ill.) may be used to calibrate the OSI determinations.
(§6) OSI determinations may be performed on an oxidative stability instrument manufactured by Omnion (Rockland, Mass.) using the AOCS method described in the above-disclosed Firestone reference. Lipid or oil samples may be run at 110° C. and FAMEs may be tested at 90° C., with air flow set at 35 kPa with a resulting velocity of about 140 ml/min. A presently preferred method for determining OSI values is described by T. A. Isbell et al., “Oxidative Stability Index of Vegetable Oils in Binary Mixtures with Meadowfoam Oil,” Industrial Crops and Products 9, 115–123 (1999).
Unless otherwise stated, Oxidative Stability Index (OSI) values were determined on 5.00 ±0.05 g lipid or oil samples in triplicate according to AOCS Official Method Cd 12b-92 (AOCS, 1993) at 90° C., 110° C. and/or 130° C. on an oxidative stability instrument manufactured by Omnion (Rockland, Mass.). Details of the procedure have been published by Isbell et al., “Oxidative Stability Index of Vegetable Oils in Binary Mixtures with Meadowfoam Oil,” Ind. Crops Prod. 9, 115–123 (1999). When compounds of the present invention were added to the lipid or oil sample being tested, the compounds (0.1% to 1.0% by weight) were added to the test lipid or oil (20 g) and dissolved or dispersed at room temperature before triplicate 5.00 g samples of lipid or oil with an added compound of the invention were weighed into the OSI test tube.
The 1,3-di(3-methoxybenzyl) thiourea prepared in Example 3 was mixed at 0.1%, 0.5% or 1.0% with refined meadowfoam seed oil (Lot #CW-4551, The Fanning Corp) and the oxidative stability of the mixtures was compared to that of refined meadowfoam seed oil at 130° C. The OSI times were 49.8 h, 159 h and 172 h, respectively, for the mixtures containing the thiourea compared to an OSI time of 14.9 h for this lot of refined meadowfoam seed oil with no additives at 130° C.
Thus, 1,3-bis(2-methoxyphenyl)-2-thiourea (Aldrich Chem Co.) added at 0. […] Likewise, 1,3-bis(3-methoxyphenyl)-2-thiourea at 0. 1% added to refined meadowfoam oil gave an OSI time of 27.0 h, an […] lower value than for the 1,3-di-(3-methoxybenzyl) thiourea produced in Example 3.

[4] = Solubility in refined meadowfoam seed oil (HPLC); assay type: physicochemical; conditions: oil or lipid, thermodynamic from solid, cooled to room temperature overnight
Protocol: Typical retention times were 7–9 min for the thioureas. Samples were weighed accurately (about 0.1 g) into 1.00 g of refined meadowfoam seed oil and heated to temperature (either 30° C. or 50° C.) for 4 h with occasional shaking. The samples were cooled to room temperature overnight, centrifuged and 0.3 g of the supernatant oil was removed and diluted with 1 ml CHCl3 for testing.

[5] = OSI test of jojoba oil mixed with additive; conditions: 110° C.
Excerpt: as §5, §6
Unless otherwise stated, Oxidative Stability Index (OSI) values were determined on 5.00 ±0.05 g lipid or oil samples in triplicate according to AOCS Official Method Cd 12b-92 (AOCS, 1993) at 90° C., 110° C. and/or 130° C. on an oxidative stability instrument manufactured by Omnion (Rockland, Mass.). Details of the procedure have been published by Isbell et al., “Oxidative Stability Index of Vegetable Oils in Binary Mixtures with Meadowfoam Oil,” Ind. Crops Prod. 9, 115–123 (1999). When compounds of the present invention were added to the lipid or oil sample being tested, the compounds (0.1% to 1.0% by weight) were added to the test lipid or oil (20 g) and dissolved or dispersed at room temperature before triplicate 5.00 g samples of lipid or oil with an added compound of the invention were weighed into the OSI test tube. […]

[6] = OSI test of high oleic sunflower oil mixed with additive; conditions: 1.0% additive, 130° C.
Excerpt: as §3, §4

[7] = OSI test of milkweed seed oil mixed with additive; conditions: 1.0% additive, 130° C.
Excerpt: as §3, §4

## COc1cccc(CNC(=S)NCc2cccc(OC)c2)c1 [1,3-di(3-methoxybenzyl) thiourea]
[1]
  toxicity against brine shrimp, in words: very low
In vivo
  LC50 at 24 h: > 1000 µg/mL
[2]
  OSI Time: 6.4 h
  improvement of OSI time compared to soybean oil alone: 831%
[3]; refined meadowfoam seed oil Lot #CW-4551, 0.1% additive
  OSI Time: 49.8 h
[3]; refined meadowfoam seed oil Lot #CW-4551, 0.5% additive
  OSI Time: 159 h
[3]; refined meadowfoam seed oil Lot #CW-4551, 1.0% additive
  OSI Time: 172 h
[3]; refined meadowfoam seed oil plus additive 0.1%
  OSI Time: 49.8 h
[3]; refined meadowfoam seed oil plus additive 0.5%
  OSI Time: 159 h
[3]; refined meadowfoam seed oil plus additive 1.0%
  OSI Time: 172 h
[3]; 0.1% additive
  increase in the OSI time: 234%
[3]; 0.5% additive
  increase in the OSI time: 967%
[3]; 1.0% additive
  increase in the OSI time: 1054%
[4]; heated to 30° C. for 4 h, read-out: Solubility at 30° C.
  solubility at 4 h: 2480 µg/mL (≈ 7.84 mM)
[4]; heated to 50° C. for 4 h, read-out: Solubility at 50° C.
  solubility at 4 h: 3520 µg/mL (≈ 11.1 mM)
[5]; 0.1% additive
  OSI Time: 64.2 h
  improvement of OSI time compared to jojoba oil alone: 30%
[5]; 1% additive
  OSI Time: 168 h
  improvement of OSI time compared to jojoba oil alone: 241%
[6]
  OSI Time: 157 h
  improvement of OSI time compared to sunflower oil alone: 1720%
[7]
  OSI Time: 2.78 h
  improvement of OSI time compared to milkweed oil alone: 654%
